Where “and” joins values, the source holds several entries; their conditions need not be identical. Identical values can stand only once.
Key:
TelomeScan (OBP-401) = test: XTT assay, protection from cytopathic effect of TelomeScan (OBP-401) in H1299 cells; format: cell-based, adenovirus; details: for Protection (%) Ave. / Protection (%): OBP-401 MOI 0.1, H1299, 7 days; for Protection (%): single wells, dihydrate
Experimental: (§1) Cells frozen in liquid nitrogen were thawed in water bath at 37° C., seeded at T25 flask, and cultured at 70-90% sub-confluent monolayer. Cells were detached with trypsin, and prepared suspension at a concentration of 1.0×10^4 cells/ml.
(§2) Cells were seeded in 96 well-plate (100 μL/well, 1000 cells/well), then cultured with 5% CO2 at 37° C.
Viruses were diluted at MOI of 0.1 (OBP-401) or 10 (ONYX-015) in H1299. Medium in each well was removed, 50 μL of diluted virus solution was added to each well of the plate. 2 hours later, medium was aspirated and replaced with fresh medium containing 2% FCS and serially diluted CDV. Cells were incubated with 5% CO2 at 37° C. for 7 days after infection.
(§3) 100 μL of PBS, 50 μL of XTT labeling reagent, and 1 μL of ion coupling reagent per well of plate were mixed.
(§4) Medium in each well of plate was removed, and 150 μL of mixture prepared above was added to each well. Plate was incubated with 5% CO2 at 37° C. for 4 hours, and then calculated absorbance at 450 nm and 690 nm. Protection was determined by the formula below:
(§5) Protection(%)={OD(AdV(+):CDV(+))−OD(AdV(+):CDV(−))}/{OD(AdV(−):CDV(+))−OD(AdV(+):CDV(−))}×100.

Telomelysin (OBP-301) [1] = test: XTT assay, protection from cytopathic effect of Telomelysin in A549 cells; format: cell-based, adenovirus; details: for Protection (%) Ave. / Protection (%): Telomelysin MOI 5, A549, 7 days; for Protection (%): single wells, dihydrate
Experimental: as §1, §2
(§6) Viruses were diluted at MOI of 1 (OBP-301, OBP-202) in H1299 and 5 in A549 (PFU/cell). Medium in each well was removed, 150 μL of diluted virus solution was added to each well of the plate. 2 hours later, medium was aspirated and replaced with fresh medium containing 2% FCS and serially diluted CDV. Cells were incubated with 5% CO2 at 37° C. for 7 days after infection.
as §3, §4, §5

A549 cells = test: XTT cell viability assay, CDV alone, A549 cells; format: cell-based; details: for Relative cell viability Ave. / Relative cell viability: A549, no virus, 7 days; for Relative cell viability: single wells, dihydrate
Experimental: as §1, §2, §6, §3
(§7) Medium in each well of plate was removed, and 150 μL of mixture prepared above was added to each well. Plate was incubated with 5% CO2 at 37° C. for 4 hours, and then calculated absorbance at 450 nm and 690 nm. Protection was determined by the formula below: […]

[2] = XTT cell viability assay, CDV alone, A549 cells; format: cell-based; details: human; A549 cells, XTT; read-out: CC50, CDV concentration that reduce the relative cell viability to 50%
Experimental: as §1, §2, §6, §3, §7

Telomelysin (OBP-301) [3] = test: XTT assay, protection from cytopathic effect of Telomelysin in H1299 cells; format: cell-based, adenovirus; details: for Protection (%) Ave. / Protection (%): Telomelysin MOI 1, H1299, 7 days; for Protection (%): single wells, dihydrate
Experimental: as §1, §2, §6, §3, §4, §5

SMILES: Nc1ccn(C[C@@H](CO)OCP(=O)(O)O)c(=O)n1.O.O [CDV, 1-[(S)-3-hydroxy-2-(phosphonomethoxy)propyl]cytosine dihydrate]
- Protection (%) Ave. (TelomeScan (OBP-401); CDV 0.01 μM): −0.229%
- Protection (%) (TelomeScan (OBP-401); CDV 0.01 μM): −1.063% and 0.309% and −0.240% and 0.080%
- Protection (%) Ave. (TelomeScan (OBP-401); CDV 0.06 μM): 0.057%
- Protection (%) (TelomeScan (OBP-401); CDV 0.06 μM): −0.423% and −0.514% and 1.589%
- Protection (%) Ave. (TelomeScan (OBP-401); CDV 0.32 μM): 0.171%
- Protection (%) (TelomeScan (OBP-401); CDV 0.32 μM): 0.400% and 0.674% and −0.789%
- Protection (%) Ave. (TelomeScan (OBP-401); CDV 1.6 μM): 1.931%
- Protection (%) (TelomeScan (OBP-401); CDV 1.6 μM): 3.006% and −0.057% and 2.594% and 2.183%
- Protection (%) Ave. (TelomeScan (OBP-401); CDV 8 μM): 0.469%
- Protection (%) (TelomeScan (OBP-401); CDV 8 μM): 3.280% and 0.263% and −0.743% and −0.926%
- Protection (%) Ave. (TelomeScan (OBP-401); CDV 40 μM): 40.926%
- Protection (%) Ave. (TelomeScan (OBP-401); CDV 200 μM): 15.154%
- Protection (%) Ave. (TelomeScan (OBP-401); CDV 1000 μM): 1.463%
- Protection (%) (TelomeScan (OBP-401); CDV 1000 μM): 0.446% and 0.537% and 3.554% and 1.314%
- cytopathic effect induced by TelomeScan (TelomeScan (OBP-401); H1299 cells, FIG. 2A): apparently inhibited
- Telomelysin-mediated cytopathic effect (Telomelysin (OBP-301) [1]; A549 cells, FIG. 1A): apparently inhibited
- Protection (%) Ave. (Telomelysin (OBP-301) [1]; CDV 10 μM): 1.376%
- Protection (%) (Telomelysin (OBP-301) [1]; CDV 10 μM): 1.991% and 0.387% and 1.136%
- Protection (%) Ave. (Telomelysin (OBP-301) [1]; CDV 20 μM): 7.535%
- Protection (%) (Telomelysin (OBP-301) [1]; CDV 20 μM): 7.548% and 4.342% and 7.388% and 10.862%
- Protection (%) Ave. (Telomelysin (OBP-301) [1]; CDV 30 μM): 40.094%
- Protection (%) (Telomelysin (OBP-301) [1]; CDV 30 μM): 41.269% and 33.413% and 44.208% and 41.483%
- Protection (%) Ave. (Telomelysin (OBP-301) [1]; CDV 40 μM): 56.713%
- Protection (%) (Telomelysin (OBP-301) [1]; CDV 40 μM): 61.951% and 52.118% and 53.881% and 58.904%
- Protection (%) Ave. (Telomelysin (OBP-301) [1]; CDV 50 μM): 61.202%
- Protection (%) (Telomelysin (OBP-301) [1]; CDV 50 μM): 69.539% and 54.148% and 62.592% and 58.530%
- Protection (%) Ave. (Telomelysin (OBP-301) [1]; CDV 60 μM): 67.295%
- Protection (%) (Telomelysin (OBP-301) [1]; CDV 60 μM): 68.310% and 63.768% and 66.440% and 70.661%
- Protection (%) Ave. (Telomelysin (OBP-301) [1]; CDV 70 μM): 62.538%
- Protection (%) (Telomelysin (OBP-301) [1]; CDV 70 μM): 66.226% and 58.424% and 61.844% and 63.661%
- Protection (%) Ave. (Telomelysin (OBP-301) [1]; CDV 80 μM): 56.740%
- Protection (%) (Telomelysin (OBP-301) [1]; CDV 80 μM): 54.790% and 51.637% and 59.279% and 61.256%
- Protection (%) Ave. (Telomelysin (OBP-301) [1]; CDV 90 μM): 49.806%
- Protection (%) (Telomelysin (OBP-301) [1]; CDV 90 μM): 51.423% and 50.514% and 50.942% and 46.346%
- Protection (%) Ave. (Telomelysin (OBP-301) [1]; CDV 100 μM): 38.090%
- Protection (%) (Telomelysin (OBP-301) [1]; CDV 100 μM): 33.948% and 41.590% and 36.834% and 39.987%
- EC50 (Telomelysin (OBP-301) [1]; Telomelysin, A549 cells, XTT, read-out: EC50, CDV concentration that archive the protection to 50%): 35.9 µM
- toxicity of CDV itself (A549 cells; A549 cells, high concentrations): toxic
- Relative cell viability Ave. (A549 cells; CDV 10 μM): 0.969
- Relative cell viability (A549 cells; CDV 10 μM): 0.993 and 0.938 and 0.962 and 0.982
- Relative cell viability Ave. (A549 cells; CDV 20 μM): 0.935
- Relative cell viability (A549 cells; CDV 20 μM): 0.982 and 0.877 and 0.924 and 0.958
- Relative cell viability Ave. (A549 cells; CDV 30 μM): 0.912
- Relative cell viability (A549 cells; CDV 30 μM): 0.944 and 0.883 and 0.881 and 0.939
- Relative cell viability Ave. (A549 cells; CDV 40 μM): 0.908
- Relative cell viability (A549 cells; CDV 40 μM): 0.951 and 0.860 and 0.910 and 0.911
- Relative cell viability Ave. (A549 cells; CDV 50 μM): 0.852
- Relative cell viability (A549 cells; CDV 50 μM): 0.819 and 0.842 and 0.862 and 0.884
- Relative cell viability Ave. (A549 cells; CDV 60 μM): 0.798
- Relative cell viability (A549 cells; CDV 60 μM): 0.755 and 0.792 and 0.809 and 0.837
- Relative cell viability Ave. (A549 cells; CDV 70 μM): 0.720
- Relative cell viability (A549 cells; CDV 70 μM): 0.709 and 0.703 and 0.747 and 0.719
- Relative cell viability Ave. (A549 cells; CDV 80 μM): 0.696
- Relative cell viability (A549 cells; CDV 80 μM): 0.656 and 0.707 and 0.737 and 0.683
- Relative cell viability Ave. (A549 cells; CDV 90 μM): 0.544
- Relative cell viability (A549 cells; CDV 90 μM): 0.502 and 0.552 and 0.606 and 0.518
- Relative cell viability Ave. (A549 cells; CDV 100 μM): 0.471
- Relative cell viability (A549 cells; CDV 100 μM): 0.511 and 0.451 and 0.482 and 0.438
- CC50 at 7 days [2]: 107 µM
- Protection (%) Ave. (Telomelysin (OBP-301) [3]; CDV 0.32 μM): 7.983%
- Protection (%) (Telomelysin (OBP-301) [3]; CDV 0.32 μM): 10.293% and 11.665% and 3.980% and 5.993%
- Protection (%) Ave. (Telomelysin (OBP-301) [3]; CDV 1.6 μM): 0.274%
- Protection (%) (Telomelysin (OBP-301) [3]; CDV 1.6 μM): 3.339% and −5.901% and 1.144% and 2.516%
- Protection (%) Ave. (Telomelysin (OBP-301) [3]; CDV 8 μM): 3.065%
- Protection (%) Ave. (Telomelysin (OBP-301) [3]; CDV 40 μM): 83.829%
- Protection (%) (Telomelysin (OBP-301) [3]; CDV 40 μM): 88.243% and 72.049% and 84.950% and 90.073%
- Protection (%) Ave. (Telomelysin (OBP-301) [3]; CDV 200 μM): 29.369%
- Protection (%) (Telomelysin (OBP-301) [3]; CDV 200 μM): 29.414% and 30.878% and 28.957% and 28.225%
- Telomelysin-mediated cytopathic effect (Telomelysin (OBP-301) [3]; H1299 cells, FIG. 1A): apparently inhibited
- EC50 (Telomelysin (OBP-301) [3]; NCI-H1299, Telomelysin, H1299 cells, XTT, read-out: EC50, CDV concentration that archive the protection to 50%): 20.4 µM
